Tested on: CD8+ T-cells
Test: BM-MDSCs CD8+ T-cell co-culture suppression assay
Assay type: cell-based, mice
Description: Generated bone marrow-MDSC (BM-MDSCs) were treated with conditioned media for 24 hours, then sorted into MO-MDSC and PMN-MDSC subsets. Concurrently, CD8+ T-cells were isolated from the spleens of healthy female WT C57BL/6 mice (8-12-weck-old). To isolate CD8+ T-cells, spleens were mechanically disintegrated and filtered through a 70 um filter (Alex Red Ltd., Cat #SO SCS702), the red blood cells were lysed with the red blood lysis buffer (Biological industries, Cat #01-888-1B). Then, CD8+ T-cells were isolated using the EasySep Mouse CD8+T-cell isolation kit (Stemcell Technologies, Cat # 19853) according to the manufacturer's protocol. The isolation purity was measured by staining cells before and after isolation with CD8-PECY7 (BioLegend, Cat #100722, Clone 53-6.7) by flow cytometry.
Post-sorted MDSC subpopulations were co-cultured in complete RPMI with CD8+ T-cells that are activated with Dynabeads® Mouse T-Activator CD3/CD28 kit (Cat # 11456D; 12.5 μl/1×10^6 cells). After 48 hours, the activation beads were removed and cells were incubated with eBioscience Cell Stimulation Cocktail (Invitrogen, Cat #00-4970-93) for 3 hours and then also with BD GolgiStop™ Protein Transport Inhibitor (BD Biosciences, Cat #51-2092KZ) for the detection of IFN-γ. Intracellular staining of IFN-γ in CD8+ T-cells was achieved by using the BD Cytofix/Cytoperm™ Kit (BD Biosciences, Cat #554714) as stated in the manufacturer's instructions and then staining with IFN-γ-FITC (BioLegend, Cat #505806, Clone XMG1.2) and GranzymeB-FITC (BioLegend, Cat #372206, clone QA16A02).

[1] = MO-MDSCs exposed to CM of treated B16F10, 48 hours co-incubation

CCCCCc1cc(O)c(C/C=C(\C)CCC=C(C)C)c(O)c1 [CBG, cannabigerol]
CD8+ IFN-γ expression, co-culture with MO-MDSCs [1]: restoration of CD8+ IFN-γ expression in a dose-dependent manner
GrzB expression in CD8+ T-cells co-cultured with MO-MDSCs [1]: trend of restored GrzB expression
GrzB expression in CD8+ T-cells co-cultured with PMN-MDSCs (PMN-MDSC exposed to CM of treated B16F10, 48 hours co-incubation): trend of reduced GrzB expression
CD8+ IFN-γ expression, co-culture with PMN-MDSCs (PMN-MDSCs exposed to CM of treated B16F10, 48 hours co-incubation): no significant changes with either of the treatments
